These results are taken from US20230117034A1, “PYRAZOLOTRIAZINES” (Bayer Aktiengesellschaft, priority 2019, published 2023).

The target in assay [1] is T1, CDK9/CycT1 (Homo sapiens, UniProt P50750).
T1 construct: Recombinant full-length His-tagged human CDK9 and CycT1; purchased Life Technologies PV4131; host or cells: insect cells
As to the kind of experiment: CDK9/CycT1 high ATP kinase assay (TR-FRET, 2 mM ATP). It is filed as biochemical. The settings on record: 2 mM ATP (high ATP); median; read-out: CDK9/CyclinT1, 2 mM ATP (high ATP), IC50 (median). The gist of the method: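 Full-length His-tagged human CDK9/CycT1 (insect cell, ~0.5 μg/mL) preincubated 15 min at 22 °C with compound in Tris pH 8.0, MgCl2, DTT buffer before reaction with biotinylated peptide substrate at high ATP (2 mM).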
A general note: In TR-FRET formats the signal depends on donor and acceptor labels being close together.

The target in assay [2] is T2, CDK12 (nuclear staining in CAL-120 cells) (Homo sapiens, UniProt Q9NYV4).
T2 construct: endogenous in cells; host or cells: CAL-120 human breast cancer cells (DSMZ ACC 459)
T2 sequence (Q9NYV4 whole entry): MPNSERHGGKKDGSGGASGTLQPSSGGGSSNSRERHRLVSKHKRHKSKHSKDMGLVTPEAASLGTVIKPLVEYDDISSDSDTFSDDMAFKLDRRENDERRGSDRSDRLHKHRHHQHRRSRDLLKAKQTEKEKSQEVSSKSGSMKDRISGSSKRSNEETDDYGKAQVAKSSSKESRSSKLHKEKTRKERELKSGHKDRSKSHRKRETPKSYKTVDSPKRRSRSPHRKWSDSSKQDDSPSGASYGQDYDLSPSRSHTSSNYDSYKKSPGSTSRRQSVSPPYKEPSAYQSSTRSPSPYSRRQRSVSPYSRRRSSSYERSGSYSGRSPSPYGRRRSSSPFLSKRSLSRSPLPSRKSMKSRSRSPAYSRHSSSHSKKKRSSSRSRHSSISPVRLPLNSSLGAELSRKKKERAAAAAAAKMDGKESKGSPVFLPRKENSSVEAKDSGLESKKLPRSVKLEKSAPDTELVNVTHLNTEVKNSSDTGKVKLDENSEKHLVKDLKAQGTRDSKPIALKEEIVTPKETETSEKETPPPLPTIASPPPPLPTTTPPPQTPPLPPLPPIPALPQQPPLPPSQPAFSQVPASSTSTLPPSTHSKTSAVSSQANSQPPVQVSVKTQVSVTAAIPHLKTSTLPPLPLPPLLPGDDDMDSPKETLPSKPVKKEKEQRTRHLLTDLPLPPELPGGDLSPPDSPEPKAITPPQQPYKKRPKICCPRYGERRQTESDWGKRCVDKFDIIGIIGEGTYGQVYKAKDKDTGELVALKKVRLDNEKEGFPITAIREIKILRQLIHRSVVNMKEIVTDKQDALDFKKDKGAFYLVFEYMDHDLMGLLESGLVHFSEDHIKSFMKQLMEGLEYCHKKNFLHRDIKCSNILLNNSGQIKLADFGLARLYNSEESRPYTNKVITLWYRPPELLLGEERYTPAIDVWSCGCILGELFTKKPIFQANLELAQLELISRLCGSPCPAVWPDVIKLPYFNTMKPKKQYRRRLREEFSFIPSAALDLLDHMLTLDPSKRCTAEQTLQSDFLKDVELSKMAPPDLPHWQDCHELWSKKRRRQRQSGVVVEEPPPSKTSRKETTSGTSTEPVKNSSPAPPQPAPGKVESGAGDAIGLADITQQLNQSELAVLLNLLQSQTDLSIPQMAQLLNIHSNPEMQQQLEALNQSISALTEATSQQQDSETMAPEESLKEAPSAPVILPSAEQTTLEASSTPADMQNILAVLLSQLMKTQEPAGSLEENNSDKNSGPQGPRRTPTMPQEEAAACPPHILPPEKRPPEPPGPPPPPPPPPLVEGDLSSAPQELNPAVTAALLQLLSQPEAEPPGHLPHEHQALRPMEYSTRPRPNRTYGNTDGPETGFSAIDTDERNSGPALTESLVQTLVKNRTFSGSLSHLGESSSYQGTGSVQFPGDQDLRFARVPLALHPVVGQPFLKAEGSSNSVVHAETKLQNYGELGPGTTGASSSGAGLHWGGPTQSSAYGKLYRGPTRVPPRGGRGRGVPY
T2 sequence (O75909 whole entry partner): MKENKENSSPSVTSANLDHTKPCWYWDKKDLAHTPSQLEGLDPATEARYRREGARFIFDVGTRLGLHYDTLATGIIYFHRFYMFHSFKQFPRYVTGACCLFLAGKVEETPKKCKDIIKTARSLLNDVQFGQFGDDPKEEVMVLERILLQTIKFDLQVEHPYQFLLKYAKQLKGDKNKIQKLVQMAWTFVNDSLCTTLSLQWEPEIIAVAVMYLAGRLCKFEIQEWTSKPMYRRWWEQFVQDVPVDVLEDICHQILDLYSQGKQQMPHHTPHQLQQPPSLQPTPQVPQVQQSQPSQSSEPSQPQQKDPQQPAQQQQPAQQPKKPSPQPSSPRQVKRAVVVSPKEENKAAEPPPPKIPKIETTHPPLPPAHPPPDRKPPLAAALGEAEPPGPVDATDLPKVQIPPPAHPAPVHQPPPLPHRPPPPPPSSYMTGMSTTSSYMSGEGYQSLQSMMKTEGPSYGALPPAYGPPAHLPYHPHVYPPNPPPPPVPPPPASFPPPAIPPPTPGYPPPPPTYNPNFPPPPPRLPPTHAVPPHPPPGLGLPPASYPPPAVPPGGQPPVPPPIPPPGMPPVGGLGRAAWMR
As to the kind of experiment: CDK12 nuclear protein level: immunofluorescence/high content analysis (CAL-120). It counts as cell-based. The settings on record: for DC50: CAL-120 cells, 24 h, immunofluorescence, 50% reduction of nuclear CDK12 staining intensity, median, read-out: CDK12 degradation IF, DC50- [mol/l] (median); for (IC50 CDK12 high ATP) to (Degradation DC50 CDK12) ratio: ratio of IC50 CDK12 high ATP kinase assay to DC50 CDK12 degradation (IF, CAL-120). The gist of the method: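 CAL-120 cells were treated with compound for 24 h at 37 °C, fixed with PFA and immunostained for CDK12. Nuclear CDK12 intensity was quantified by automated image analysis and normalized to DMSO and control. DC50 is the concentration giving 50% reduction of nuclear staining.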

Assay [3] deals with T3, CYCLIN K (nuclear staining in CAL-120 cells) (Homo sapiens, UniProt O75909).
T3 construct: endogenous in cells; host or cells: CAL-120 human breast cancer cells (DSMZ ACC 459)
T3 sequence (O75909 whole entry): as the sequence (O75909 whole entry partner) above
T3 sequence (Q9NYV4 whole entry partner): as the sequence (Q9NYV4 whole entry) above
As to the kind of experiment: CYCLIN K nuclear protein level: immunofluorescence high content analysis (CAL-120). It is filed as cell-based. The settings on record: 24 h, 50% reduction of nuclear CCNK staining intensity, median, read-out: CYCLIN K degradation IF, DC50-[mol/l] (median). The gist of the method: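 CAL-120 breast cancer cells treated in dose-response for 24 h at 37 °C, PFA-fixed and immunostained for cyclin K with Hoechst counterstain. Confocal imaging quantified nuclear intensity; DC50 is the concentration giving 50% reduction of nuclear CCNK staining, normalized to DMSO and control.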

T1 sequence (P50750 whole entry): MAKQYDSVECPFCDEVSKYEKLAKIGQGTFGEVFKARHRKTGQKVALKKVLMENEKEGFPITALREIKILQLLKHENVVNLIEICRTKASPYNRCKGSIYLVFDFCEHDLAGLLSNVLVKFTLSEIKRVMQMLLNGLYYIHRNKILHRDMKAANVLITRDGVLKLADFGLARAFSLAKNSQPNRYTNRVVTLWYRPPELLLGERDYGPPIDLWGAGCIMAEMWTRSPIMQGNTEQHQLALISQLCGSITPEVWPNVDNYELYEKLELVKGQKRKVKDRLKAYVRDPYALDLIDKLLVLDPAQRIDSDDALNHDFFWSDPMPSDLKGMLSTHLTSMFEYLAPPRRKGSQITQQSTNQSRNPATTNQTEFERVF
T1 sequence (O60563 whole entry partner): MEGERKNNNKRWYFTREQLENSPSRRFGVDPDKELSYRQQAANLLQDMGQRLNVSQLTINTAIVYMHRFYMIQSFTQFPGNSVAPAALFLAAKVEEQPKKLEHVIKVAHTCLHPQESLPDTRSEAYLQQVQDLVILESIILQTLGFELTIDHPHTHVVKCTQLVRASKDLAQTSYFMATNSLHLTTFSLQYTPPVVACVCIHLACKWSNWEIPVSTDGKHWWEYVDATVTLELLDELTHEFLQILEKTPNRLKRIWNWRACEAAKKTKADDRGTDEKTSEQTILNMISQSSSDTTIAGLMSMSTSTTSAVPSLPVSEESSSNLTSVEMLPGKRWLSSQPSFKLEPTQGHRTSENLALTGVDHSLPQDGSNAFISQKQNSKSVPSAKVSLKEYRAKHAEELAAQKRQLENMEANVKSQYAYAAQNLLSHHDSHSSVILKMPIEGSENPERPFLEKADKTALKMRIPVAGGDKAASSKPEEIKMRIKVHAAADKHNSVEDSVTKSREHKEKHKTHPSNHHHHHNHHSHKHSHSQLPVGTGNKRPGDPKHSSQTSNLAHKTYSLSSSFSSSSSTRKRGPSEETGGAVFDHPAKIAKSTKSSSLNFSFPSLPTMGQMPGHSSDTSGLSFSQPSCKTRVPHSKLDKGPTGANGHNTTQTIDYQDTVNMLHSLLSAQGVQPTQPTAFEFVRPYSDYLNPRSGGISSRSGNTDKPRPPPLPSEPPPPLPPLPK

For the compound `CN(CC(C)(C)O)c1nc(NCc2nc3c(F)c(F)ccc3[nH]2)n2ncc(C(F)(F)F)c2n1` [Example 402, 1-{[4-{[(4,5-difluoro-1H-benzimidazol-2-yl)methyl]amino}-8-(trifluoromethyl)pyrazolo[1,5-a][1,3,5]triazin-2-yl](methyl)amino}-2-methylpropan-2-ol], the IC50 in assay [1] was found to be 5400 nM. Moreover, the DC50 was 7.03 nM in assay [2] and 1.78 nM in assay [3]. In addition, the “(IC50 CDK12 high ATP) to (Degradation DC50 CDK12) ratio” value in assay [2] was 32.

Regarding `Fc1ccc2[nH]c(CNc3nc(N4CCOCC4)nc4c(-c5nccs5)cnn34)nc2c1F` [Example 413, N-[(4,5-difluoro-1H-benzimidazol-2-yl)methyl]-2-(morpholin-4-yl)-8-(1,3-thiazol-2-yl)pyrazolo [1,5-a][1,3,5]triazin-4-amine], the IC50 in assay [1] is > 20000 nM. Besides, in assay [2], the DC50 stood at 19.8 nM and the “(IC50 CDK12 high ATP) to (Degradation DC50 CDK12) ratio” value is recorded as >1012. Further, the DC50 in assay [3] stood at 6.91 nM.

`Brc1cnn2c(NCc3nc4ccccc4[nH]3)nc(N3CC4(COC4)C3)nc12` [Example 48, N-[(1H-benzimidazol-2-yl)methyl]-8-bromo-2-(2-oxa-6-azaspiro[3.3]heptan-6-yl)pyrazolo[1,5-a][1,3,5]triazin-4-amine]: the IC50 in assay [1] was > 20000 nM. Further, the DC50 in assay [2] was 20.7 nM; in assay [3] it was 7.03 nM. The “(IC50 CDK12 high ATP) to (Degradation DC50 CDK12) ratio” value in assay [2] is recorded as >276.

Consider `CC(C)c1cnn2c(NCc3nnc(-c4ccccc4)[nH]3)nc(N(C)CC(C)(C)O)nc12` [Example 39, 2-methyl-1-{methyl[4-{[(5-phenyl-4H-1,2,4-triazol-3-yl)methyl]amino}-8-(propan-2-yl)pyrazolo[1,5-a][1,3,5]triazin-2-yl]amino}propan-2-ol], for which the IC50 in assay [1] came to 4910 nM. Also, the DC50 worked out at 41.4 nM in assay [2] and 8.13 nM in assay [3]. Also, the “(IC50 CDK12 high ATP) to (Degradation DC50 CDK12) ratio” value in assay [2] is on record as 113.

On to `COc1ccccc1-c1nnc(CNc2nc(N3CCOCC3)nc3c(Br)cnn23)[nH]1` [Example 61, 8-bromo-N-{[5-(2-methoxyphenyl)-4H-1,2,4-triazol-3-yl]methyl}-2-(morpholin-4-yl)pyrazolo[1,5-a][1,3,5]triazin-4-amine], for which the IC50 in assay [1] was > 20000 nM. For the same compound, the DC50 in assay [2] came out at 5.11 nM; in assay [3], 3.59 nM. Besides, the “(IC50 CDK12 high ATP) to (Degradation DC50 CDK12) ratio” value in assay [2] is given as >3913.

Take `CCc1cnn2c(NCc3nc4ccccc4[nH]3)nc(N3CCOCC3)nc12` [Example 431, N-[(1H-benzimidazol-2-yl)methyl]-8-ethyl-2-(morpholin-4-yl)pyrazolo[1,5-a][1,3,5]triazin-4-amine]: in assay [1], the IC50 is > 20000 nM. For the same compound, in assay [2], the DC50 came to 3.39 nM and the “(IC50 CDK12 high ATP) to (Degradation DC50 CDK12) ratio” value stood at 829. For the same compound, in assay [3], the DC50 turned out to be 1.74 nM.

Regarding `Cn1cc(-c2cnn3c(NCc4nc5cc(Cl)c(Cl)cc5[nH]4)nc(N4CCOCC4)nc23)cn1` [Example 419, N-[(5,6-dichloro-1H-benzimidazol-2-yl)methyl]-8-(1-methyl-1H-pyrazol-4-yl)-2-(morpholin-4-yl)pyrazolo[1,5-a][1,3,5]triazin-4-amine], in assay [1], the IC50 is > 20000 nM. The DC50 in assay [2] was 38.7 nM; in assay [3] it was 9.09 nM. Besides, in assay [2], the “(IC50 CDK12 high ATP) to (Degradation DC50 CDK12) ratio” value is >517.

As to `Brc1cnn2c(NCc3nnc(-c4ccccn4)[nH]3)nc(N3CCOCC3)nc12` [Example 54, 8-bromo-2-(morpholin-4-yl)-N-{[5-(pyridin-2-yl)-4H-1,2,4-triazol-3-yl]methyl}pyrazolo[1,5-a][1,3,5]triazin-4-amine], in assay [1], the IC50 is 6240 nM. Besides, the figures for the DC50 in assay [2] and in assay [3] were 37.8 nM and 10.2 nM, respectively. In addition, the “(IC50 CDK12 high ATP) to (Degradation DC50 CDK12) ratio” value in assay [2] was found to be 150.

Consider `N#Cc1cccc(-c2nnc(CNc3nc(N4CCOCC4)nc4c(Br)cnn34)[nH]2)c1` [Example 55, 3-[5-({[8-bromo-2-(morpholin-4-yl)pyrazolo[1,5-a][1,3,5]triazin-4-yl]amino}methyl)-4H-1,2,4-triazol-3-yl]benzonitrile], for which the IC50 in assay [1] came to 718 nM. Further, the DC50 in assay [2] came out at 3.43 nM; in assay [3], 0.843 nM. Further, in assay [2], the “(IC50 CDK12 high ATP) to (Degradation DC50 CDK12) ratio” value worked out at 224.

In the case of `CN1CCN(c2nc(NCc3nc4c(F)c(F)ccc4[nH]3)n3ncc(CC(F)(F)F)c3n2)CC1` [Example 437, N-[(4,5-difluoro-1H-benzimidazol-2-yl)methyl]-2-(4-methylpiperazin-1-yl)-8-(2,2,2-trifluoroethyl) pyrazolo[1,5-a][1,3,5]triazin-4-amine], the IC50 in assay [1] is > 20000 nM. In assay [2], the DC50 was determined as 1.76 nM and the “(IC50 CDK12 high ATP) to (Degradation DC50 CDK12) ratio” value was >11369. Moreover, the DC50 in assay [3] turned out to be 2.09 nM.

As to `Cc1cnn2c(NCc3nc4c(F)c(F)ccc4[nH]3)nc(N(C)CC(C)(C)O)nc12` [Example 395, 1-[(4-{[(4,5-difluoro-1H-benzimidazol-2-yl)methyl]amino}-8-methylpyrazolo[1,5-a][1,3,5]triazin-2-yl)(methyl)amino]-2-methylpropan-2-ol], the IC50 in assay [1] is > 20000 nM. Further, the results for the DC50 in assay [2] and in assay [3] were 8 nM and 0.884 nM, respectively. The “(IC50 CDK12 high ATP) to (Degradation DC50 CDK12) ratio” value in assay [2] was 800.

In the case of `CN1CCN(c2nc(NCc3nc4ccccc4[nH]3)n3ncc(CC(F)(F)F)c3n2)CC1` [Example 436, N-[(1H-benzimidazol-2-yl)methyl]-2-(4-methylpiperazin-1-yl)-8-(2,2,2-trifluoroethyl)pyrazolo [1,5-a][1,3,5]triazin-4-amine], the IC50 in assay [1] was > 20000 nM. Also, in assay [2], the DC50 is 14.7 nM and the “(IC50 CDK12 high ATP) to (Degradation DC50 CDK12) ratio” value is given as >1357. Further, the DC50 in assay [3] is 15.9 nM.

On to `CCc1cnn2c(NCc3nc4c(F)c(F)ccc4[nH]3)nc(N3CCOCC3)nc12` [Example 432, N-[(4,5-difluoro-1H-benzimidazol-2-yl)methyl]-8-ethyl-2-(morpholin-4-yl)pyrazolo[1,5-a][1,3,5]triazin-4-amine], for which the IC50 in assay [1] was 15700 nM. Also, the DC50 in assay [2] was found to be 0.948 nM; in assay [3] it was 0.353 nM. The “(IC50 CDK12 high ATP) to (Degradation DC50 CDK12) ratio” value in assay [2] is recorded as 2425.

In the case of `Brc1cnn2c(NCc3nnc(-c4cccnc4)[nH]3)nc(N3CCOCC3)nc12` [Example 53, 8-bromo-2-(morpholin-4-yl)-N-{[5-(pyridin-3-yl)-4H-1,2,4-triazol-3-yl]methyl}pyrazolo[1,5-a][1,3,5]triazin-4-amine], the IC50 in assay [1] worked out at 1290 nM. For the same compound, the results for the DC50 in assay [2] and in assay [3] were 47.2 nM and 9.25 nM, respectively. Moreover, in assay [2], the “(IC50 CDK12 high ATP) to (Degradation DC50 CDK12) ratio” value is on record as 43.

On to `Fc1ccc2[nH]c(CNc3nc(N4CCOCC4)nc4c(-c5cncs5)cnn34)nc2c1F.O=C(O)C(F)(F)F` [Example 442, trifluoroacetic acid N-[(4,5-difluoro-1H-benzimidazol-2-yl)methyl]-2-(morpholin-4-yl)-8-(1,3-thiazol-5-yl)pyrazolo[1,5-a][1,3,5]triazin-4-amine], for which, in assay [1], the IC50 is > 20000 nM. The DC50 was 4.68 nM in assay [2] and 0.385 nM in assay [3]. Moreover, the “(IC50 CDK12 high ATP) to (Degradation DC50 CDK12) ratio” value in assay [2] was 125.
